The text below walks through data of patent US20100234306A1, “USE OF A PEPTIDE AS A THERAPEUTIC AGENT” (priority 2007, published 2010).

Where no end group is shown, it is not given here.

One data set has as its system CEM-SS cells. Put plainly: Cytotoxicity (MTS cell viability) in the HIV-1 assay. To be noted: MTS, peptide 10 micrograms per ml.
The test system of a further data set is HIV-1IIIB. Put plainly: HIV-1 antiviral CPE assay in CEM-SS cells (MTS). The note with it: 6 days post-infection, peptide 10 micrograms per ml.
A short description of data set [1]: Cytotoxicity (MTS cell viability) in the HIV-1 assay. To be noted: human, CEM-SS cells.
The test system of a further data set is Pseudomonas aeruginosa. Briefly: Pseudomonas aeruginosa growth inhibition assay. The note with it: Mueller-Hinton Broth, read visually, peptide 10 micrograms per ml. Type of data set: cell-based.
A short description of the next data set: in vitro. To be noted: human.
Data set [2] is described as follows: Cytotoxicity testing in MRC-5 cells (CellTiter 96). The class given is cell-based. To be noted: human, MRC-5 cells (embryonal lung fibroblasts), 6 days incubation, read-out: % Cell viability. As for the experimental part: For cytotxicity testing, MRC-5 cells were seeded at 2,500 cells/well in 96 well plates using growth medium. […] The following day, peptide was added and tested in duplicates. After a 6 days incubation period, cell viability was measured using CellTiter 96 Solution (Promega). Plates were incubated for additional 4 hours at 37° C.

For another data set, the system named is Streptococcus pneumoniae. Briefly: Streptococcus pneumoniae growth inhibition assay. Type of data set: cell-based. To be noted: Mueller-Hinton Broth, read visually, peptide 10 micrograms per ml.
A further data set has as its system MRSA. To be noted: Mueller-Hinton Broth, read visually, peptide 10 micrograms per ml.

For `Cc1cn([C@H]2C[C@H](N=[N+]=[N-])[C@@H](CO)O2)c(=O)[nH]c1=O` [AZT], the “% Cell viability” value in the data set with CEM-SS cells is 97%. Besides, the “% CPE reduction in HIV-1 infected CEM-SS cells” value in the data set with HIV-1IIIB is 99%.

Consider `CC(C)(C)NC(=O)[C@@H]1CN(Cc2cccnc2)CCN1C[C@@H](O)C[C@@H](Cc1ccccc1)C(=O)N[C@H]1c2ccccc2C[C@H]1O` [Indinavir], for which, in the data set on CEM-SS cells, the “% Cell viability” value worked out at 93%.

Turning to MQMKKVLDS-OH [AIP-1], the viability (in general, a read-out of living cells in per cent, often relative to untreated cells) at 10 micrograms per ml in data set [1] is 100%. Further, the “% inhibition” value in the data set with Pseudomonas aeruginosa, in the data set on Streptococcus pneumoniae and in the data set with MRSA was 0.0% each time. In addition, in “in vitro”, the viability at 144 h, 10 micrograms per ml came to 100%. For the same compound, the viability at 144 h in data set [2] was determined as 100%.
